# Laboratory results: the NIST ThermoML archive (doi:10.1016/j.fluid.2016.10.024)
# Numbers after ± are expanded uncertainties.
# Assay: refractive index (Na D-line) (dimensionless)
# Details: 293.15 K; 101.33 kPa; Liquid; Standard Abbe refractometry
row,refractive index,SMILES
1,1.3978 ± 0.0011,CCC(C)O (stereo not drawn) [butan-2-ol]
2,1.3809 ± 0.001,CCC(=O)O [propanoic acid]

row,SMILES,refractive index
1,CC(C)=O [acetone],1.3588 ± 0.0011
